Activity calls are given as the source filed them.
Key:
Estrogen receptor [1] = biological target: T1, Estrogen receptor (Homo sapiens, UniProt P03372); experiment: ERα coactivator recruitment enhancers – biochemical, TR-FRET, ERα LBD, dose response (AID 737)
T1 sequence (P03372 whole entry): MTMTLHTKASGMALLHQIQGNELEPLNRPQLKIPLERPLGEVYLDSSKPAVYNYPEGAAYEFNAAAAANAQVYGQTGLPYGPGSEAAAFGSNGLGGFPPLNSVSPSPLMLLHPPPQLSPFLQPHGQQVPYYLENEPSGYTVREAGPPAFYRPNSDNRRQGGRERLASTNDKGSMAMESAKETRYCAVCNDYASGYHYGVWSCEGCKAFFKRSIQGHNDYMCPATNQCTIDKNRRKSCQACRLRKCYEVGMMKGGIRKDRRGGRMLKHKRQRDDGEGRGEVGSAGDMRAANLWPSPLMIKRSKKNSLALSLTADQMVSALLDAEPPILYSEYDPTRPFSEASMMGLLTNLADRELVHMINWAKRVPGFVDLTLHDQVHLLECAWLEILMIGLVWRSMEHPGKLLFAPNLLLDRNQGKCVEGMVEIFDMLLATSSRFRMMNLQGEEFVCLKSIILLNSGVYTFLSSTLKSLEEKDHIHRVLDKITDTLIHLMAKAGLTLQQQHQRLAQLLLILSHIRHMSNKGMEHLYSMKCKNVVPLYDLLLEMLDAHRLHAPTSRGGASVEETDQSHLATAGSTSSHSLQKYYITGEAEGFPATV

[2] = biological target: Eukaryotic translation initiation factor 4H (Homo sapiens, UniProt Q15056); experiment: eIF4H binding inhibition – biochemical, uHTS, fluorescence polarization, translation initiation inhibitor project, primary screen (AID 2012)
[3] = biological target: Polyadenylate-binding protein 1 (Homo sapiens, UniProt P11940); experiment: blockers of PABP interaction with poly(A) – biochemical, fluorescence polarization, […] (AID 2014)
Estrogen receptor [4] = biological target: T1, Estrogen receptor
Protein skinhead-1 = biological target: T2, Protein skinhead-1 (Caenorhabditis elegans, UniProt P34707); type: functional
T2 sequence (P34707 whole entry): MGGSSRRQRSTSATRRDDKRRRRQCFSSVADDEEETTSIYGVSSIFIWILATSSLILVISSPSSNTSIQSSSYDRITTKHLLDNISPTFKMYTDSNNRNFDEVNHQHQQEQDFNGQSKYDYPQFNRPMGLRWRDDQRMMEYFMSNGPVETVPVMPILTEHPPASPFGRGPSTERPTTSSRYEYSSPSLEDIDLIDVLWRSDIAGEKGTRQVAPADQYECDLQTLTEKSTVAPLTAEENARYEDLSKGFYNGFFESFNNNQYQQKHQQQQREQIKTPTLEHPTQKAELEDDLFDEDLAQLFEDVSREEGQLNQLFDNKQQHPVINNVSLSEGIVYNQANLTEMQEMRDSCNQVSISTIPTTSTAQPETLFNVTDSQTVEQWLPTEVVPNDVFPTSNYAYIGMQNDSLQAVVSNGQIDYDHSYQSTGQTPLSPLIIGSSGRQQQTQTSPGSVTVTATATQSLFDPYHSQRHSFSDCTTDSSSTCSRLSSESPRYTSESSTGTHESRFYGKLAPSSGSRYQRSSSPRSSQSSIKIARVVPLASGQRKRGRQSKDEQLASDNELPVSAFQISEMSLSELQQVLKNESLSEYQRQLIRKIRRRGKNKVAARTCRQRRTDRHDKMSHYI

[5] = biological target: T3, Alkaline phosphatase, tissue-nonspecific isozyme (Homo sapiens, UniProt P05186)
T3 sequence (P05186 whole entry): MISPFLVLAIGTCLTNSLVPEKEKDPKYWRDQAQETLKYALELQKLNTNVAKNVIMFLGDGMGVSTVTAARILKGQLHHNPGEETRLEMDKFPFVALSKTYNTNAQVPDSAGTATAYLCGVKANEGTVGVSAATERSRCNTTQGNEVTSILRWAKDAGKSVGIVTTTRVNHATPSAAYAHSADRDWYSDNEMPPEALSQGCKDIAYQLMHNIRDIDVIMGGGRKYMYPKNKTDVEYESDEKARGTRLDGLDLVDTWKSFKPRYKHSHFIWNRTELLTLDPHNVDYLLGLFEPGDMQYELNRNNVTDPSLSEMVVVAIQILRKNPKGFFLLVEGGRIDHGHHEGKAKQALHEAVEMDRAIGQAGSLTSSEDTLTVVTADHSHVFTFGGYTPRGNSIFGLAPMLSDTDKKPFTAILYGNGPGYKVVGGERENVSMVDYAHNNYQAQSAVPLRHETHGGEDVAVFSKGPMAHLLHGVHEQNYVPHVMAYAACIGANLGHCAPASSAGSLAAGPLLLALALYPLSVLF

[6] = system: Streptococcus sp. 'group A'; experiment: Streptococcus pyogenes SK(-)GAS viability under kanamycin – luminescence, BacTiterGlo, confirmation, counter-screen for streptokinase expression inhibitor project, dose response (AID 1900); type: functional, organism-based
Streptococcus = experiment: GAS UMAA2166 growth inhibition – luminescence, BacTiterGlo, counter-screen for streptokinase expression inhibitor project, dose response (AID 1915); type: functional, organism-based;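 note: potency for reduction of bacterial viability or growth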
[7] = biological target: T4, Heat shock factor protein 1 (Mus musculus, UniProt P38532); experiment: decrease of HSF1-responsive luciferase luminescence – cell-based, NIH3T3, dose retest, confirmation (AID 2382); type: functional;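 note: NIH3T3 fibroblasts with HSF1-driven luciferase reporter stressed by proteasome inhibitor MG132; luminescence from HSF1-driven luciferase expression after 8 hours of MG132 stress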
T4 sequence (P38532 whole entry): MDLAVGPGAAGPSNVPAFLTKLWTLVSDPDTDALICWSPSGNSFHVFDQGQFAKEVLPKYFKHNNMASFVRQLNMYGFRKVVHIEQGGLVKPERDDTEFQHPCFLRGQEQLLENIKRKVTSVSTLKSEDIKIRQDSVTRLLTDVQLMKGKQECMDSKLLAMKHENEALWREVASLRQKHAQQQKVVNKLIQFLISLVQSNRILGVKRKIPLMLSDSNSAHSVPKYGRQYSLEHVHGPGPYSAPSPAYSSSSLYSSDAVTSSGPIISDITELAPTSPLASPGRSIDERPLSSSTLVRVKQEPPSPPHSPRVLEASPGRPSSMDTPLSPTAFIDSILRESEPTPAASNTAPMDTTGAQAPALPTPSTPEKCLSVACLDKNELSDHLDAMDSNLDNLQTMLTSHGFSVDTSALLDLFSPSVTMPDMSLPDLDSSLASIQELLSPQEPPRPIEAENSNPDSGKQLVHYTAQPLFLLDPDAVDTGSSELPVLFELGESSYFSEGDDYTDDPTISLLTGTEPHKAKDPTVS

NADPH oxidase 1 = NADPH oxidase 1 (Homo sapiens, UniProt Q9Y5S8); type: functional, cell-based;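 note: Cell-based assay with luminescence read-out, IC50 derived from inhibitor dose-response curves; intracellular ROS from endogenous NOX1 in intact HT29 colon cancer cells; potency of inhibitors that lower the ROS luminescence signal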
[8] = A High Throughput Confirmatory Assay used to Identify Novel Compounds that Inhibit Mycobacterium Tuberculosis in the absence of Glycerol.; type: functional
Protein Tat = biological target: T5, Protein Tat (Human immunodeficiency virus type 1 group M subtype B (isolate HXB2)(HIV-1), UniProt P04608); type: functional;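 note: tat binding to TAR RNA read out by fluorescence polarization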
T5 sequence (P04608 whole entry): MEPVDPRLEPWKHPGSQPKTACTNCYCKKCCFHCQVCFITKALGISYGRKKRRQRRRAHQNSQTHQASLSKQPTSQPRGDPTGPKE

[9] = viability loss in THP-1 monocytes – THP-1 cells, cytotoxicity control for Vif-APOBEC3G degradation inhibitor project, dose response (AID 1117359); type: functional; conditions: THP-1
[10] = microbe, parasite or virus in culture; type: functional; conditions: Mycobacterium tuberculosis
[11] = HPDE-C7 pancreatic duct cell viability loss – fluorescence, HTS (AID 430); type: functional, cell-based; conditions: Homo sapiens
[12] = viability loss of HPDE-C7K cells – cell-based, fluorescence, HTS, primary screen (AID 431); type: functional; conditions: Homo sapiens
Aminopeptidase N = Aminopeptidase N (Plasmodium falciparum FcB1/Columbia, UniProt O96935); experiment: malaria alanyl aminopeptidase activity blockers – biochemical, fluorogenic H-Leu-NHMec substrate, 1536-well (AID 1445); design: species or system Plasmodium falciparum 3D7, 3D7
[13] = biological target: T6, Replicative DNA helicase DnaB (Mycobacterium tuberculosis, UniProt P9WMR3); experiment: DnaB intein splicing inhibitors, dose response, biochemical, cell-free fluorescence (AID 449749); type: functional
T6 sequence (P9WMR3 whole entry): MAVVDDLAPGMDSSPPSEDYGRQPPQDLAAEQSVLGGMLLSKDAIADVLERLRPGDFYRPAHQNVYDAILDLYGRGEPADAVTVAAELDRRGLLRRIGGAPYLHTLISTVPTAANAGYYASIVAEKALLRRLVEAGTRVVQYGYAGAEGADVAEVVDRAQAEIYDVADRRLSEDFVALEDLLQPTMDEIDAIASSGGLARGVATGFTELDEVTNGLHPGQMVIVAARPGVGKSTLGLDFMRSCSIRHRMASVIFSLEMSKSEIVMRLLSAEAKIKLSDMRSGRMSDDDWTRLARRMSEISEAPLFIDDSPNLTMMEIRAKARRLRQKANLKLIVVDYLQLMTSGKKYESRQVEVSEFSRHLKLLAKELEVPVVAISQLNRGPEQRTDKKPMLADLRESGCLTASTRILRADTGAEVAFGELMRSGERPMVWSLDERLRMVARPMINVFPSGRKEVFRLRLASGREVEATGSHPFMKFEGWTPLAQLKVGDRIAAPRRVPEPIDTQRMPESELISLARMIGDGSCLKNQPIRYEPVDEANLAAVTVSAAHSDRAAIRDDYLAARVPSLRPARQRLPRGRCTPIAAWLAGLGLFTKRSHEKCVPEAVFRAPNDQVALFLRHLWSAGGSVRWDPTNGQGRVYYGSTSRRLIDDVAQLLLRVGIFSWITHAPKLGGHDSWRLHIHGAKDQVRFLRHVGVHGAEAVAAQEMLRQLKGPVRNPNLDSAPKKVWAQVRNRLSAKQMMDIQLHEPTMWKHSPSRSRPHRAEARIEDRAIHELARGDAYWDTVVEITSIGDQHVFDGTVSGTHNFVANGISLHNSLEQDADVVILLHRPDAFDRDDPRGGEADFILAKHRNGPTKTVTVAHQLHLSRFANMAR

Protein RecA = biological target: T7, Protein RecA (Mycobacterium tuberculosis, UniProt P9WHJ3); experiment: Fluorescence Cell-Free Homogeneous Dose Retest to Identify Inhibitors of RecA-Intein Splicing Activity. [Related pubchem assays (depositor defined):AID2097, AID2223, AID489010, AID492950]; type: functional
T7 sequence (P9WHJ3 whole entry): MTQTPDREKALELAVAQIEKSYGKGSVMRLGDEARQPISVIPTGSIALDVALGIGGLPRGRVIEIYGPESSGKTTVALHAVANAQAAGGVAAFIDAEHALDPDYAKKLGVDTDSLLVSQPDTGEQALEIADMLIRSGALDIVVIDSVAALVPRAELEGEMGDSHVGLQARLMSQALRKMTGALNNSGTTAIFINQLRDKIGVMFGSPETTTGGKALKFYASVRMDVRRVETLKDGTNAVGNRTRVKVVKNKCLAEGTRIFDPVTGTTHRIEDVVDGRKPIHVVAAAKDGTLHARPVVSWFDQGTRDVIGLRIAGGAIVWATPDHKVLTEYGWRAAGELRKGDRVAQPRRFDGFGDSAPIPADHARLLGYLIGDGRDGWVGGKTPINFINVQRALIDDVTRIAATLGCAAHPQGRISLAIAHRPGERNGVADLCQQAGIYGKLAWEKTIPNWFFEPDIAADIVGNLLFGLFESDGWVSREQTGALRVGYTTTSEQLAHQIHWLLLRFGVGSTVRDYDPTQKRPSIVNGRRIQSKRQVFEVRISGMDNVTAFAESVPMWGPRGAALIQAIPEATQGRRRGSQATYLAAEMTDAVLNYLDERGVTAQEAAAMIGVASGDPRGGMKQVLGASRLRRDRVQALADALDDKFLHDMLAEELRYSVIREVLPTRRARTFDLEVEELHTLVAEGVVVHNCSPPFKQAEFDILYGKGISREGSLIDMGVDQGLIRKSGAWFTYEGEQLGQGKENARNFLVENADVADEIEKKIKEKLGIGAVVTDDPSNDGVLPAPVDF

Large T antigen = Large T antigen (Simian virus 40, UniProt P03070); type: functional, Betapolyomavirus macacae;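 note: Confirmatory-stage PubChem screen for compounds that inhibit SV40 T antigen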
[14] = M. tuberculosis H37Rv growth inhibitors, H37Rv strain (AID 1626); type: functional

Sequence of Polyadenylate-binding protein 1 (P11940 whole entry): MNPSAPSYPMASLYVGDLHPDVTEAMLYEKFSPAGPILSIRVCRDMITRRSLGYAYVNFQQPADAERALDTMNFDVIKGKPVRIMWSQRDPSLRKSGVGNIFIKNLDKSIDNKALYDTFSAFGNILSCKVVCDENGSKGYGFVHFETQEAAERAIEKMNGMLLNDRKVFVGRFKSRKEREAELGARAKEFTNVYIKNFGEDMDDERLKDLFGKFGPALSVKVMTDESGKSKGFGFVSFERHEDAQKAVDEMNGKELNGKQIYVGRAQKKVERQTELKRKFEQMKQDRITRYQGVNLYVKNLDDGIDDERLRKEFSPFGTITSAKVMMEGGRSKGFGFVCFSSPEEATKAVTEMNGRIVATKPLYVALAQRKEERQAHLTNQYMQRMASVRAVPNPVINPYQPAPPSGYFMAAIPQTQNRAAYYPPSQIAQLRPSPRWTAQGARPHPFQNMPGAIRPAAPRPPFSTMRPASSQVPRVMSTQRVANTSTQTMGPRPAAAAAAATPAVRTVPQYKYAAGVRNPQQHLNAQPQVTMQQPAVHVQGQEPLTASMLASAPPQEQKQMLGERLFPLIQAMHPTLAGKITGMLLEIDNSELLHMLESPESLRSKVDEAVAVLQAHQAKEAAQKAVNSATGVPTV
Sequence of Aminopeptidase N (O96935 whole entry): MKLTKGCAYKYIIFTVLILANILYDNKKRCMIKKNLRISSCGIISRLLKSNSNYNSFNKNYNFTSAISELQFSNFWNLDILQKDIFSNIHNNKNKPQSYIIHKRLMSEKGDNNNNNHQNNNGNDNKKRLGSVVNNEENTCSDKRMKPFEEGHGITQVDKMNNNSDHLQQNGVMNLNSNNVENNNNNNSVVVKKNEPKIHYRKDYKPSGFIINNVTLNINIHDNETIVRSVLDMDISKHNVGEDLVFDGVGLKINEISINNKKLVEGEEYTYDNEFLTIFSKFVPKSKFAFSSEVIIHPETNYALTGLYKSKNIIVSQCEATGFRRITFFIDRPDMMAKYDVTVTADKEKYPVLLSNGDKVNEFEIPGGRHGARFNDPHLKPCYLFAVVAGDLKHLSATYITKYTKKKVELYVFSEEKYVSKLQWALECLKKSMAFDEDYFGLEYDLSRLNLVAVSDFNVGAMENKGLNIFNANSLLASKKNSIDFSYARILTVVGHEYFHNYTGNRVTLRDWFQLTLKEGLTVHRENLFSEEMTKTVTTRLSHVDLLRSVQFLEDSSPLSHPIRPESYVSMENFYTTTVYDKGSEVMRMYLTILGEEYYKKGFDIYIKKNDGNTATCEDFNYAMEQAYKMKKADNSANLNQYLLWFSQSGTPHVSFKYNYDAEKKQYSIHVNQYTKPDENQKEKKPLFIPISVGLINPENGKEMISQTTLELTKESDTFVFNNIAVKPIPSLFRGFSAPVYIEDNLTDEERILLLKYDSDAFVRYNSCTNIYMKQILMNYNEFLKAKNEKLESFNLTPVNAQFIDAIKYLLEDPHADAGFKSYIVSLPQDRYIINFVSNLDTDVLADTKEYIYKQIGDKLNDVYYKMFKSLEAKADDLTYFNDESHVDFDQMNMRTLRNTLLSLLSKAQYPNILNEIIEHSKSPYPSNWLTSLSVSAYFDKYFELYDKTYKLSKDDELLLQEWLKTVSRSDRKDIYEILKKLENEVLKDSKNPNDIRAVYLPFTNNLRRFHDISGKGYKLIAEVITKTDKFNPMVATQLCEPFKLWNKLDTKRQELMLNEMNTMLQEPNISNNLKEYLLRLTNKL
Sequence of NADPH oxidase 1 (Q9Y5S8 whole entry): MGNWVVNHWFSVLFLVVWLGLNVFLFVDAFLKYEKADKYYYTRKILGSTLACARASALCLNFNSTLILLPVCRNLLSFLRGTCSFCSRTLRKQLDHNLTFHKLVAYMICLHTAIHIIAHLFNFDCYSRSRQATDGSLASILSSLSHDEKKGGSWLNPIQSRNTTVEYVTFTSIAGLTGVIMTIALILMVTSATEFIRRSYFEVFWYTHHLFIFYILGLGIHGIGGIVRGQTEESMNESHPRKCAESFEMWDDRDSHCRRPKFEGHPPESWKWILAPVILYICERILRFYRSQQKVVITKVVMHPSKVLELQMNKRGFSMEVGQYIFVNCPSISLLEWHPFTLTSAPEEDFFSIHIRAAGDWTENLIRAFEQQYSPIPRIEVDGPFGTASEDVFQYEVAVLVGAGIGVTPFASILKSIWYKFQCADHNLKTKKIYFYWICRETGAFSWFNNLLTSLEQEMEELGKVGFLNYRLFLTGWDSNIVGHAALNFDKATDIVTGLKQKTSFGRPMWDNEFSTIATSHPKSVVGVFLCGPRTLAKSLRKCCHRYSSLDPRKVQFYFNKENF
Sequence of Large T antigen (P03070 whole entry): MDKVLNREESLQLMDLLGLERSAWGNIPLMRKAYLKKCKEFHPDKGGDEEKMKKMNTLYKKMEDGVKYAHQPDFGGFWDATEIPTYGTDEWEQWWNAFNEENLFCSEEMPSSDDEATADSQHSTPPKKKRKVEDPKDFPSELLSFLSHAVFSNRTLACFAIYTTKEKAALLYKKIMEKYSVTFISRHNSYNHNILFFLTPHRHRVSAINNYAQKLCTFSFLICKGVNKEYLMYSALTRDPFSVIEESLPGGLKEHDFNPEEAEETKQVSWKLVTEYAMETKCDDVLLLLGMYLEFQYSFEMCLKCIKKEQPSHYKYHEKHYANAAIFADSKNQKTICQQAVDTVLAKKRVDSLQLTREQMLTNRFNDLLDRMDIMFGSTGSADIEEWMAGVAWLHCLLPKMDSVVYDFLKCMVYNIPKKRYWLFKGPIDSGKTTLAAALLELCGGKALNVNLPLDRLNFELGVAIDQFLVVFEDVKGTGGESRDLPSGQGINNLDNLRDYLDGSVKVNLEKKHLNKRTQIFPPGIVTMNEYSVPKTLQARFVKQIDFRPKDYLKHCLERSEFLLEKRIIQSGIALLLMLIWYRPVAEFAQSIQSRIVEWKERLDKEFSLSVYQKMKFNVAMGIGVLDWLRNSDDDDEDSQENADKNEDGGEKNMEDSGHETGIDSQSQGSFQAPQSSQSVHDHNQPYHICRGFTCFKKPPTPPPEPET

With O=C(Cn1c(=O)oc2cc(S(=O)(=O)N3CCCCCC3)ccc21)NC1CCCCC1 the EC50 (Estrogen receptor [1]) was 12.9 µM (not active).

In the case of Cc1ccccc1N(C)S(=O)(=O)c1nnc(NC(=O)c2ccco2)s1, the IC50 [2] is reported as 25.9 µM (active) and the IC50 [3] is reported as 67.8 µM (active).

With N#Cc1c(N)oc(-c2ccc3c(c2)OCO3)c1-c1ccc2c(c1)OCO2 the IC50 (Estrogen receptor [4]) was > 50 µM (not active) and the IC50 (Protein skinhead-1) was > 100 µM (inactive).

For O=C(Nc1ccccc1-c1ccccc1)NC1CC2CCCC(C1)N2CCc1ccccc1 (centres undefined), the EC50 [5] was 51.2 µM (not active).

For CC(=O)NC(=S)Nc1ccc(NC(=S)NC(=O)/C=C/c2ccco2)cc1, the EC50 [6] was 2.69 µM (active), the IC50 [2] was 36.7 µM (active) and the EC50 (Streptococcus) was 5.33 µM (active). For the same compound, the IC50 [3] was > 100 µM (inactive).

In the case of C=CCSC1=Nc2sccc2C2=NC(=O)CN12, the EC50 [5] is reported as > 100 µM (not active) and the EC50 [7] is reported as 18.5 µM (active).

With Cc1ccc(S(=O)(=O)c2ccc3c(c2)Sc2ccc(Cl)cc2N3)cc1 the IC50 (NADPH oxidase 1) was 5.25 µM (active).

For COCCOC(=O)c1ccc(NC(=O)COc2ccc([N+](=O)[O-])cc2)cc1, the IC50 [8] was > 100 µM (active).

In the case of Oc1ccc2ccccc2c1C1Nc2cccc3cccc(c23)N1, the IC50 (Protein Tat) is reported as 41.7 µM (inconclusive), the IC50 [8] is reported as > 100 µM (active) and the CC50 [9] is reported as > 40 µM (active). The CC50 [10] was > 40 µM (active).

With O=S(=O)(CC(CN1CCCC1)N1CCCC1)c1ccc2ccccc2c1 (centres undefined) the EC50 [11] was 2.04 µM (active) and the EC50 [12] was 2.38 µM (active).

With COc1ccc(-n2nnc3c(SCC(=O)Nc4ccc5c(c4)OCCO5)ncnc32)cc1 the EC50 [11] was 7.96 µM (active) and the EC50 [12] was 8.32 µM (active).

In the case of O=C(c1cnc2n(c1=O)CCS2)N(C1CCCCC1)C1CCCCC1, the IC50 (Aminopeptidase N) is reported as 149 µM (active).

With Oc1cnn(-c2ccccc2)c1 the AC50 [13] was 12.7 µM (active), the EC50 (Protein RecA) was 1.1 µM (active) and the IC50 (Large T antigen) was 4.71 µM (active). The IC50 [14] was > 100 µM (active).

For COc1ccccc1-c1nnc(SC/C(O)=C(\C#N)c2nc3ccccc3[nH]2)n1C1CCCCC1, the IC50 (Aminopeptidase N) was 52.2 µM (active).

With Clc1ccccc1-c1nc(-c2ccccc2)c(-c2ccccc2)[nH]1 the IC50 (NADPH oxidase 1) was > 17 µM (not active).

Source: ChEMBL document CHEMBL1201862, “PubChem BioAssay data set” (2004)
